Source: ChEMBL document CHEMBL3507680, “University of Dundee, Gates Library screen for HepG2 cell viability”

Assay: Human HepG2 cell viability assay in 384 well format
Format: toxicity, cell-based
Set-up: dose 125 nL, time 70.5 hour; cytotoxicity at 70.5 h: concentration not given beside the values
Settings: HepG2 cells, read-out: Inhibition

In order of rising cytotoxicity at 70.5 h:
1. Cc1cc(C2CCCN2Cc2ccc(S(=O)(=O)N3CCCC3)o2)on1 (centres undefined)  -102%
2. O=C(Nc1cnccn1)[C@@H]1COC[C@H]2CN(C3CCC3)C[C@H]21  -87.9%
3. Cc1ccc(SC2CCCC2)c(C(=O)NCCO)c1  -23.4%
4. O=C(NCc1nn(-c2ccccc2)c2c1CCC2)NC1CC1  -19%
5. COCCc1noc(CN(C)C(=O)c2cccc(N3CCCC3=O)c2)n1  -17%
6. O=C(c1ccc(F)cc1)N(CCCO)S(=O)(=O)c1cccs1  -16.3%
7. COc1cc(N2CCC3(CC2)CC(N2CCOCC2)C3)ncn1  -16%
8. Cc1noc(C)c1CC(=O)N1CCCC(n2ccnc2C)C1 (centres undefined)  -15.6%
9. O=C(Cc1csc(-c2cccc(Cl)c2)n1)NCc1cccc(C(=O)O)c1  -14.3%
10. CC(C)N(Cc1ccccc1)C(=O)NCCNC(=O)c1cccnc1  -13.6%
11. O=C(c1cnc(Nc2ccccc2)nc1)N1CCC2(CCNCC2)CC1  -13.5%
12. O=C(NCCCNc1cccnc1)c1ccc2nccn2c1  -12.7%
13. COCC(Nc1ncnc2c1CCNCC2)c1ccccn1 (centres undefined)  -12.5%
14. COCCNC(=O)Nc1ccc(C(=O)N2CCSCC2)cc1C  -12.4%
15. O=C(NCc1ccco1)[C@H]1C[C@H]2OCC[C@H]2N(C(=O)c2ccncc2)C1  -12.4%
16. CCc1nc(CN(C)CC(=O)N(C)C2CC2)cs1  -12.2%
17. N#Cc1ccc(CNCC2(c3ccccc3)CCOCC2)cc1  -12%
18. Cc1c(F)cccc1S(=O)(=O)N(C)CC(C)O (centres undefined)  -11.6%
19. CCN1C[C@H]2C3(CCN(C(=O)NC(C)C)CC3)CC[C@@]2(C(=O)NC)C1  -11.3%
20. Cc1ccccc1C1(C(=O)N2CCCC(n3cncn3)C2)CC1 (centres undefined)  -10.8%
21. Cn1cc(C(=O)N2CCCCC2CCc2ccccc2)cn1 (centres undefined)  -10.6%
22. CN(Cc1c(Cl)ccc2cccnc12)CC(C)(CO)CO  -10.4%
23. CCc1nccn1CCC(=O)N1CCN(c2ccccc2C)CC1C (centres undefined)  -10.2%
24. CC1(C)CCN1C(=O)c1cc(F)cc2[nH]cnc12  -9.74%
25. Cc1ccc(CN2CCCn3c(nc(CN4CCCC4)cc3=O)C2)s1  -8.86%
26. Cc1sc(Br)cc1S(=O)(=O)NCCCN  -8.71%
27. Cc1ccc(OCCN(C)Cc2nc3c(cnn3C)c(=O)[nH]2)cc1  -8.39%
28. Cc1ccc([C@@H]2CN(S(=O)(=O)c3cc(C)ccc3F)C[C@H]2N(C)C)cc1  -8.32%
29. O=C(C1CCCC1)N1C[C@@H](c2ccsc2)[C@@H]2CN(C3CCCC3)CC[C@@H]21  -8.32%
30. O=S(=O)(CCN1CCN(c2ccccc2O)CC1)c1ccc(Br)cc1  -8.18%
31. CN(C)c1cnnc(N2CCN(C(=O)Cc3ccccc3)CC2)c1  -8%
32. Cc1nc(C)c(C(=O)NCCNc2ncccc2C#N)s1  -7.46%
33. CCC(=O)N1CCC(NC2CCCC2)C1 (centres undefined)  -7.41%
34. Cc1ccsc1S(=O)(=O)N1CCc2c(c(C(=O)O)nn2CC2CC2)C1  -7.3%
35. O=C(NCCc1cccnc1)c1nc2c(s1)CCCN2C(=O)C1CC1  -7.13%
36. CC(=O)NCCNC(=O)c1cnc(-c2ccc(C)cc2C)s1  -6.99%
37. Cc1ccccc1-c1cc(CC2(C(=O)O)CCOCC2)on1  -6.86%
38. COc1ccc2[nH]cc(C(=O)N3CC[C@H](CO)[C@@H](O)C3)c(=O)c2c1  -6.72%
39. O=C(c1ccc(C2CCCN2)s1)N1CCC2(CCCO2)CC1 (centres undefined)  -6.68%
40. COc1cccc(CC(=O)NCc2cnc(C)nc2C2CCCN2C)c1 (centres undefined)  -6.33%
41. O=C(N1CCOCC1)N1CCN(c2ccc(Cl)nn2)C(=O)C1  -6.24%
42. Cc1nn(C)c2cnn(CC(=O)NCCc3ccccc3)c12  -6.1%
43. COc1ccc(NC(=O)N2CCCC(CO)C2)c(C)c1 (centres undefined)  -6.09%
44. CCN1CC(C(=O)NC(C)(C)C)CC1=O (centres undefined)  -6.02%
45. CS(=O)(=O)c1ccc(CN2C[C@H]3CC[C@@H]2CN(c2ncccn2)C3)cc1  -5.94%
46. OC(CNCCn1cccn1)COc1ccc(Br)cc1 (centres undefined)  -5.72%
47. COc1cccc(CNC(=O)N2CCCC(Cn3cc(CN)nn3)C2)c1 (centres undefined)  -5.66%
48. CNC(=O)c1cc2c(nc1NCC(C)C)CCN(S(=O)(=O)N(C)C)CC2  -5.52%
49. CC(C(=O)N(Cc1ccccc1)CC(F)(F)F)S(C)(=O)=O (centres undefined)  -5.47%
50. O=S(=O)(C1CC1)N1CCC2(CCCN(Cc3ccccn3)C2)CC1  -5.17%
51. O=C(c1cccnc1)N1CCc2c(nc(N3CCCC3)[nH]c2=O)C1  -4.95%
52. CC(NC(=O)c1ccc(F)cc1F)c1cnn(C)c1 (centres undefined)  -4.48%
53. CC(=O)N1CCN(S(=O)(=O)c2ccc(C)c(F)c2)CC1  -4.35%
54. CC(NC(=O)NCCCN(C)S(C)(=O)=O)c1ccc(C#N)cc1 (centres undefined)  -4.16%
55. CC[C@@H](Cn1ncc2ccccc2c1=O)NC(=O)c1cnccn1  -4.08%
56. CCCNc1ccc(C(=O)NCCc2cccc(OC)c2)cn1  -3.99%
57. COc1ccccc1NC(=O)Cc1c(C)nc2c(c1C)c(=O)[nH]n2C  -3.59%
58. O=C1CCC(=O)N1CCN1CCN(c2cc(F)ccc2F)CC1  -3.59%
59. C=C(C)COc1cccc(C(=O)N(C)Cc2cc(CC)no2)c1  -3.37%
60. COc1cnc(N2CCCC(c3ncc[nH]3)C2)nc1 (centres undefined)  -3.19%
61. CN(C)C(=O)[C@H]1C[C@H]2OCC[C@H]2N(CCOc2ccc(Cl)cc2)C1  -3.17%
62. Cc1noc(C)c1CSc1nc(=O)ccn1C(C)C  -3.07%
63. COc1ccc(OC)c(CNCc2c(C(C)C)nn(C)c2N(C)C)c1  -3.06%
64. COc1cccc(CNCc2c(C(C)C)nn(C)c2N(C)C)c1OC  -3.04%
65. Cc1ccc(C(=O)N(C)Cc2cc(C)on2)cn1  -2.86%
66. Cc1cc(NC(=O)NCc2cccnc2OC2CCCC2)n(C)n1  -2.74%
67. Cc1nc(CN2CCN(C(=O)c3ccc(=O)n(C)c3)CC2)cs1  -2.46%
68. CCc1ncc(C(=O)N(CCOC)Cc2ccccc2F)cn1  -2.26%
69. COc1ccc(NC(=O)c2cnc(C3CCN(C)CC3)nc2C)cc1  -2.26%
70. OC1(Cn2ccc3ncccc32)CCN(Cc2cccnc2)CC1  -2.24%
71. Cn1cncc1CNC1CC2(CCN(CC3CC3)CC2)c2ccccc21 (centres undefined)  -2.23%
72. Cn1ccc(C(=O)N2CCCCC2c2cc(CCO)[nH]n2)n1 (centres undefined)  -1.7%
73. Cc1noc(C)c1C(=O)N1CCC(c2[nH]ncc2S(C)(=O)=O)C1 (centres undefined)  -1.52%
74. CN(CC(=O)NC(N)=O)CC1(c2ccc(Br)cc2)CC1  -1.35%
75. Cc1cc(NC(=O)c2ccc(N3CCOCC3)c(F)c2)[nH]n1  -1.35%
76. Cc1cnc(CN2CCCC(c3cc(C(F)(F)F)[nH]n3)C2)cn1 (centres undefined)  -1.33%
77. CC(C)c1cc(C2CCN(Cc3cc(F)cc(F)c3)CC2)[nH]n1  -1.12%
78. Cc1cc2nc(CO[C@H]3CN(C)C[C@H]3F)[nH]c2cc1C  -0.513%
79. Cn1[nH]c(CNc2cccc(Cl)c2)nc1=O  -0.326%
80. CN1CCCN(S(=O)(=O)c2cn(C)cn2)c2cc(Cl)ccc21  -0.299%
81. Cc1nc(S(=O)(=O)NCCC(=O)NCc2ccc(C#N)cc2)cn1C  -0.237%
82. COc1cccc(C(=O)N2CCCC(C(=O)CCc3ccccc3)C2)c1 (centres undefined)  -0.206%
83. CCCN1Cc2ccccc2CC1C(=O)NC (centres undefined)  -0.114%
84. O=C(NCc1ccco1)c1ccc(N2CCOCC2)cc1  0.191%
85. Cc1ccccc1CC(=O)N1C[C@@H](O)[C@H](N2CCN(C)CC2)C1  0.191%
86. O=C(c1ccon1)N1CCc2ncnc(NCc3ccccn3)c2CC1  0.424%
87. CC(=O)NC1CCCN(C(=O)Nc2nnc(C(C)C)s2)C1 (centres undefined)  0.76%
88. Cc1nc2c(c(=O)n1C)CCN(Cc1cc3ccccc3[nH]1)CC2  0.793%
89. COC(=O)c1cccnc1N1CCC(Oc2cccc(F)c2)CC1  1.14%
90. O=S(=O)(c1ccc(Cl)cc1)N1CCC(OCc2ccccn2)C1 (centres undefined)  2.04%
91. O=C(NCCN1CCCCCC1=O)NCc1ccc(Cl)s1  2.1%
92. CCCS(=O)(=O)CCN1CCN(c2cc(F)ccc2F)CC1  2.83%
93. COCc1csc(NC(=O)NCc2ccccn2)n1  5.11%
94. O=C1COC2(CCN(Cc3cccs3)CC2)CN1c1cccnc1  5.94%
95. CC(=O)c1cc(C(=O)N2Cc3ccccc3OC3(CCOCC3)C2)cs1  6.07%
96. c1cnnc(N2CCCC(NCc3cccc4c3OCCO4)C2)c1 (centres undefined)  6.38%
97. O=C1C[C@@H]2CCN(Cc3ccccc3)C[C@@H]2CCN1c1ccccc1  6.43%
98. CCn1nc(C)c(CN(Cc2ccccn2)Cc2ccccc2Cl)c1C  10.9%
99. CC(C)N(C)C(=O)C1CSCN1S(=O)(=O)c1cc(Cl)ccc1Cl (centres undefined)  11.9%
100. CNc1ncccc1CN1CCC1c1cc(N)nc(C)n1 (centres undefined)  12.5%
101. CC(=O)N1CCC(c2ncc(C(=O)Nc3ccc(F)cc3)c(C)n2)CC1  12.6%
102. COC(=O)Cn1c(=O)nc2n1C(=O)N(c1ccc(C)cc1)C2  13.2%
103. Cn1ncc2c1C(COCC1CC1)CN(C(=O)c1ccoc1)C2 (centres undefined)  14.1%
104. CC(C)(NCC(=O)NCC1CC1)c1ccc2c(c1)OCCO2  15.5%
105. c1cc(CCN2CCC(NCc3ccsc3)CC2)ccn1  15.8%
106. CCC(C)C(=O)NCc1cccc(OCCN(C)C2CCOCC2)c1 (centres undefined)  16.4%
107. Cc1csc(C2CCCCN2C(=O)c2cn[nH]c2C)n1 (centres undefined)  16.7%
108. CN1CCCN(C(=O)NCCNc2ncccn2)CC1  17.7%
109. CC(Cn1cccn1)NCC(=O)NC1(C#N)CCCCC1 (centres undefined)  21.3%
110. Cc1ccc(CC(=O)NC2CCN(c3cccc(Cl)c3)C2)cn1 (centres undefined)  22.6%
111. CCCS(=O)(=O)N1CCC2(CC1)CN(c1ccccn1)CCO2  23.8%
112. O=C(NCC(F)(F)F)C1CSCN1S(=O)(=O)c1ccccc1F (centres undefined)  26%
113. CC(C)(O)CN1CCN(C(=O)c2ccc(Cl)c3cccnc23)CC1  26%
114. CN(Cc1ccc(-n2cccn2)cc1)C(=O)CCC(F)(F)F  26.9%
